In ChEMBL document CHEMBL3885861, “Open TG-GATES”:

Species: Rattus norvegicus
Assay: Open TG-GATES - Regimen: Single
Format: toxicity, organism-based, Sprague-Dawley
Parameters: regimen Single, gender Male, age 6 weeks
Conditions: in vivo, po, 100 mg/kg, route gavage, dose level Middle; for APTT / Bas / Eos / Fbg / Hb / Ht / Lym / MCH / MCHC / MCV / Mono / Neu / PT / Plat / RBC / Ret / WBC: tissue Blood; for KIDNEY_L / KIDNEY_R / KIDNEY_TOTAL: tissue Kidney; for LIVER: tissue Liver; for A/G / ALP / ALT / AST / BUN / CRE / Ca / Cl / DBIL / GLC / IP / K / LDH / Na / PL / RALB / TBIL / TC / TG / TP / gamma-GTP: tissue Plasma

Nc1ccc(Cc2ccc(N)cc2)cc1
TERMINAL_BW (3 h): 212.4 g | APTT (3 h): 14.4 s | Bas (3 h): 0% | Eos (3 h): 0.6% | Fbg (3 h): 268.8 mg/dL | Hb (3 h): 13 g/dL | Ht (3 h): 38% | Lym (3 h): 75.8% | MCH (3 h): 21 pg | MCHC (3 h): 34.2% | MCV (3 h): 61.4 fL | Mono (3 h): 3.8% | Neu (3 h): 19.4% | PT (3 h): 11.7 s | Plat (3 h): 154.4 x10_4/uL | RBC (3 h): 618.6 x10_4/ul | Ret (3 h): 8.7% | WBC (3 h): 83.6 x10_2/uL | KIDNEY_L (3 h): 0.8 g | KIDNEY_R (3 h): 0.9 g | KIDNEY_TOTAL (3 h): 1.7 g | LIVER (3 h): 9.1 g | A/G (3 h): 0.8 | ALP (3 h): 1470.6 IU/L | ALT (3 h): 45.6 IU/L | AST (3 h): 82.8 IU/L | BUN (3 h): 11 mg/dL | CRE (3 h): 0.2 mg/dL | Ca (3 h): 10.9 mg/dL | Cl (3 h): 104 meq/L | DBIL (3 h): 0.028 mg/dL | GLC (3 h): 173.6 mg/dL | IP (3 h): 9.4 mg/dL | K (3 h): 4 meq/L | LDH (3 h): 64.4 IU/L | Na (3 h): 140.2 meq/L | PL (3 h): 155.6 mg/dL | RALB (3 h): 2.5 g/dL | TBIL (3 h): 0.074 mg/dL | TC (3 h): 86.4 mg/dL | TG (3 h): 73 mg/dL | TP (3 h): 5.6 g/dL | gamma-GTP (3 h): 1.2 IU/L | TERMINAL_BW (6 h): 206.8 g | APTT (6 h): 14.6 s | Bas (6 h): 0% | Eos (6 h): 0.6% | Fbg (6 h): 278 mg/dL | Hb (6 h): 13.4 g/dL | Ht (6 h): 39.2% | Lym (6 h): 62.4% | MCH (6 h): 21.2 pg | MCHC (6 h): 34.1% | MCV (6 h): 62.3 fL | Mono (6 h): 3.6% | Neu (6 h): 32.2% | PT (6 h): 11.8 s | Plat (6 h): 144.9 x10_4/uL | RBC (6 h): 630.2 x10_4/ul | Ret (6 h): 8.2% | WBC (6 h): 104 x10_2/uL | KIDNEY_L (6 h): 0.9 g | KIDNEY_R (6 h): 0.9 g | KIDNEY_TOTAL (6 h): 1.9 g | LIVER (6 h): 9.3 g | A/G (6 h): 0.8 | ALP (6 h): 1520.8 IU/L | ALT (6 h): 42.8 IU/L | AST (6 h): 94.8 IU/L | BUN (6 h): 8.8 mg/dL | CRE (6 h): 0.2 mg/dL | Ca (6 h): 10.5 mg/dL | Cl (6 h): 104.6 meq/L | DBIL (6 h): 0.1 mg/dL | GLC (6 h): 176.2 mg/dL | IP (6 h): 9.5 mg/dL | K (6 h): 4 meq/L | LDH (6 h): 90 IU/L | Na (6 h): 140.2 meq/L | PL (6 h): 152.4 mg/dL | RALB (6 h): 2.5 g/dL | TBIL (6 h): 0.2 mg/dL | TC (6 h): 79 mg/dL | TG (6 h): 53.2 mg/dL | TP (6 h): 5.6 g/dL | gamma-GTP (6 h): 2.6 IU/L | TERMINAL_BW (9 h): 205.5 g | APTT (9 h): 14.8 s | Bas (9 h): 0% | Eos (9 h): 0.8% | Fbg (9 h): 285.4 mg/dL | Hb (9 h): 13 g/dL | Ht (9 h): 37.8% | Lym (9 h): 68.6% | MCH (9 h): 21.2 pg | MCHC (9 h): 34.2% | MCV (9 h): 61.9 fL | Mono (9 h): 2.8% | Neu (9 h): 27.6% | PT (9 h): 12.1 s | Plat (9 h): 139.1 x10_4/uL | RBC (9 h): 610.8 x10_4/ul | Ret (9 h): 7.8% | WBC (9 h): 72.9 x10_2/uL | KIDNEY_L (9 h): 0.9 g | KIDNEY_R (9 h): 0.9 g | KIDNEY_TOTAL (9 h): 1.8 g | LIVER (9 h): 8 g | A/G (9 h): 0.8 | ALP (9 h): 1218.8 IU/L | ALT (9 h): 43.8 IU/L | AST (9 h): 105 IU/L | BUN (9 h): 8.2 mg/dL | CRE (9 h): 0.2 mg/dL | Ca (9 h): 10.2 mg/dL | Cl (9 h): 106.2 meq/L | DBIL (9 h): 0.2 mg/dL | GLC (9 h): 167.6 mg/dL | IP (9 h): 9.4 mg/dL | K (9 h): 4.5 meq/L | LDH (9 h): 99 IU/L | Na (9 h): 142.4 meq/L | PL (9 h): 166.2 mg/dL | RALB (9 h): 2.4 g/dL | TBIL (9 h): 0.3 mg/dL | TC (9 h): 86.8 mg/dL | TG (9 h): 39.8 mg/dL | TP (9 h): 5.3 g/dL | gamma-GTP (9 h): 3.4 IU/L | TERMINAL_BW (24 h): 195.3 g | APTT (24 h): 16.4 s | Bas (24 h): 0% | Eos (24 h): 0.4% | Fbg (24 h): 474.8 mg/dL | Hb (24 h): 12.6 g/dL | Ht (24 h): 35.7% | Lym (24 h): 62.4% | MCH (24 h): 21.5 pg | MCHC (24 h): 35.4% | MCV (24 h): 60.6 fL | Mono (24 h): 5% | Neu (24 h): 31% | PT (24 h): 11.5 s | Plat (24 h): 149.3 x10_4/uL | RBC (24 h): 589 x10_4/ul | Ret (24 h): 6.7% | WBC (24 h): 118.7 x10_2/uL | KIDNEY_L (24 h): 0.9 g | KIDNEY_R (24 h): 0.9 g | KIDNEY_TOTAL (24 h): 1.8 g | LIVER (24 h): 7.8 g | A/G (24 h): 0.8 | ALP (24 h): 3282.4 IU/L | ALT (24 h): 252.8 IU/L | AST (24 h): 532.6 IU/L | BUN (24 h): 11.2 mg/dL | CRE (24 h): 0.2 mg/dL | Ca (24 h): 11.1 mg/dL | Cl (24 h): 102.2 meq/L | DBIL (24 h): 2.3 mg/dL | GLC (24 h): 136.2 mg/dL | IP (24 h): 9.6 mg/dL | K (24 h): 3.8 meq/L | LDH (24 h): 332.8 IU/L | Na (24 h): 143.8 meq/L | PL (24 h): 302.6 mg/dL | RALB (24 h): 2.4 g/dL | TBIL (24 h): 3.1 mg/dL | TC (24 h): 135.2 mg/dL | TG (24 h): 63.4 mg/dL | TP (24 h): 5.6 g/dL | gamma-GTP (24 h): 8.6 IU/L
